These results are taken from patent US7230027B2, “Anti-first-pass effect compounds” (Bioavailability Systems, L.L.C., priority 1997, dated 2007).

The test system of data set [1] is Human Cytochrome P450. The data set is described as follows: Protocol C: human cytochrome P450-mediated biotransformation of terfenadine in human hepatic S9. The data set is classed as biochemical. The procedure:
Protocol C: Assessment of Human Cytochrome P450-Mediated Biotransformation
The process of preparing incubation mixtures begins by mixing 10 uL of ethanol or an ethanolic solution containing an inhibitor with 100 uL of 100 mg/mL bovine serum albumin (Sigma) dissolved in reaction buffer at room temperature. Reaction buffer is composed of 0.10 M sodium phosphate, 1.0 mM ethylenediaminetetraacetic acid, and 5.0 mM magnesium chloride, pH 7.4 (all reagents: Fisher Scientific). Inhibitory chemicals used were ketoconazole (Research Diagnostics, Inc.), miconazole, bergapten, xanthotoxin (previous three from Sigma), bergamotin, imperatorin, isopimpinellin, psoralen, angelicin (previous five from Indofine Chemical Company, Inc.), and fractions or precipitates resulting from Protocols A, A′, B, B′, or B″ above. When possible, final inhibitor concentrations were expressed in molarity by calculation from the weighed material or by interpolation from HPLC calibration curves prepared with reference materials; otherwise, concentrations are expressed as weight per volume. Reaction tubes are placed on ice in preparation for the manipulations that follow. Sufficient reaction buffer is added so that the final volume of each tube will be 500 uL, 5 uL of a 100-fold concentrate for generating reduced nicotinamide adenine dinucleotide phosphate is added (such that completed reaction mixture contains 1.0 mM nicotinamide adenine dinucleotide phosphate, 1 U/mL glucose-6-phosphate dehydrogenase, and 10 mM glucose-6-phosphate; all from Sigma), and then human hepatic S9 (Anatomic Gift Foundation) is thawed and added in sufficient amounts to cause readily detectable amounts of metabolites to be formed in control reactions (amount necessary varies among individuals, but 10 uL is typical).
The samples prepared above are readied for HPLC assessment using the protocol that follows. Each tube is vortex mixed and centrifuged for 10 min at setting 35, the resulting supernatant is transferred to a clean tube, and the liquid is evaporated using a Speed Vac apparatus. The residue in each tube is first dissolved in 40 uL 1:1 acetonitrile:water, 2.5 mL of acetonitrile is added, and the centrifuge-transfer-evaporate step just described is repeated.
Linear gradients are used for elution and are formed by mixing mobile phase A composed of water with mobile phase B composed of 0.025% (v/v) formic acid in acetonitrile (instrument: Hewlett Packard). The elution time, in minutes, the percentage of mobile phase B present in the mixed mobile phase, and the flow rate (mL/min) are as follows: 0, 10, 0.10; 2, 10, 0.10; 3.5, 10, 0.20; 4, 10, 0.25; 5, 10, 0.25; 30, 55, 0.25; 32, 98, 0.25; 33, 98, 0.40; 39.8, 98, 0.40; 40, 98, 0.25; 45, 10, 0.25; 45.25, 10, 0.20; 50, 10, 0.20; 50.25, 10, 0.10. The chromatographic column has dimensions of 150 mm length×2.1 mm internal diameter, is packed with a proprietary material (Prism, Keystone Scientific, Inc.), is protected with a 2 mm internal diameter column containing the same material and with a PTFE filter, and is maintained at 35+/−0.2° C. The dry sample residue is mixed with 60 uL of 1:1 acetonitrile:water followed by 40 uL water just prior to each 50.25 min run cycle. The column eluate from each 10 uL injection is monitored for fluorescence with excitation at 228 nm, emission at 291 nm, and bandpass filtration at 280 nm.

The conditions of data set [2]: oral tablet; cited from earlier work.
Data set [3] deals with Human Cytochrome P450. The data set is described as follows: Protocol C′: human cytochrome P450-mediated biotransformation of saquinavir in human hepatic S9. The data set is classed as biochemical. On the procedure:
Protocol C′: Assessment of Human Cytochrome P450-Mediated Biotransformation
The process of preparing incubation mixtures begins by mixing 10 uL of ethanol (control reactions) or an ethanolic solution containing an inhibitor with 100 uL of 100 mg/mL bovine serum albumin (Sigma) dissolved in reaction buffer at room temperature. Reaction buffer is composed of 0.10 M sodium phosphate, 1.0 mM ethylenediaminetetraacetic acid, and 5.0 mM magnesium chloride, pH 7.4 (all reagents: Fisher Scientific). […] Sufficient reaction buffer is added so that the final volume of each tube will be 500 uL, 5 uL of a 100-fold concentrate for generating reduced nicotinamide adenine dinucleotide phosphate is added (such that completed reaction mixture contains 1.0 mM nicotinamide adenine dinucleotide phosphate, 1 U/mL glucose-6-phosphate dehydrogenase, and 10 mM glucose-6-phosphate; all from Sigma), and then human hepatic S9 (Anatomic Gift Foundation) is thawed and added in sufficient amounts to cause readily detectable amounts of metabolites to be formed in control reactions (amount necessary varies among individuals, but 10 uL is typical). […]
The samples prepared above are readied for HPLC assessment using the protocol that follows. […]

For data set [4] the following is noted: heart transplant patients, cyclosporin co-administered with ketoconazole; cited from earlier work.
The mark [5] stands for this setting: protocol not given, Protocol C or C′.

Structures are written as SMILES. Where two headings read alike, the source gives them in different places.

Regarding `O=c1ccc2cc3ccoc3cc2o1` [psoralen], in the data set on Human Cytochrome P450 [1] (setting [5]), the “first-pass effect inhibition, determined herein” value (shortened to “first-pass effect inhibition”) was “ineffective”.

For the compound `CC(=CCOc1c2ccoc2cc2oc(=O)ccc12)CCC(O)C(C)(C)O` (centres unmarked) [6′,7′-dihydroxybergamottin], in the data set on Human Cytochrome P450 [1], the “first-pass effect inhibition” value was “ineffective”.

As for `CC(C)(C)c1ccc(C(O)CCCN2CCC(C(O)(c3ccccc3)c3ccccc3)CC2)cc1` (centres unmarked) [terfenadine], the “part of a tablet given by mouth quickly changed to metabolites” value in data set [2] is given as 99.5%.

As to `CC(C)=CCOc1c2occc2cc2ccc(=O)oc12` [imperatorin], the “first-pass effect inhibition” value in the data set on Human Cytochrome P450 [1] (setting [5]) was “ineffective”. In addition, the “first-pass inhibition (generation of saquinavir metabolites in presence of inhibitor)” value in the data set with Human Cytochrome P450 [3] (Protocol C′, human hepatic S9, FIG. 1) is listed as “essentially ineffective”.

On to `COc1c2ccoc2c(OC)c2oc(=O)ccc12` [isopimpinellin], for which, in the data set with Human Cytochrome P450 [1], the “first-pass effect inhibition” value is “ineffective”.

Consider `CC(=O)N1CCN(c2ccc(OCC3COC(Cn4ccnc4)(c4ccc(Cl)cc4Cl)O3)cc2)CC1` (centres unmarked) [ketoconazole], for which the “reduction of the dose of cyclosporin required” value in data set [4] is listed as “approximately 85%”.

On to `CC(C)=CCC/C(C)=C/COc1c2ccoc2cc2oc(=O)ccc12` [bergamottin], for which the “first-pass effect inhibition” value in the data set on Human Cytochrome P450 [1] is “ineffective”. For the same compound, the “first-pass inhibition (generation of saquinavir metabolites in presence of inhibitor)” value in the data set on Human Cytochrome P450 [3] is recorded as “essentially ineffective”.

As for `C/C(=C\COc1ccc2ccc(=O)oc2c1)CC[C@@H](O)C(C)(C)O` [marmin], the “first-pass effect inhibition” value in the data set with Human Cytochrome P450 [1] was “ineffective”.

Turning to `O=c1ccc2ccc3occc3c2o1` [angelicin], the “first-pass effect inhibition” value in the data set with Human Cytochrome P450 [1] (setting [5]) is recorded as “ineffective”.
